Earlier results as cited in publication PMC6946680, “Modulation of brain cation-Cl^− cotransport via the SPAK kinase inhibitor ZT-1a” (Nature Communications, 2020).

System: humans
Details: cited from earlier work

For `Cc1cc(C(C#N)c2ccc(Cl)cc2)c(Cl)cc1NC(=O)c1cc(I)cc(I)c1O` (stereo not shown) [Closantel, reference compound], the “toxicity contraindicating use in humans” value is listed as “retinal toxicity”.
